In the data set the test system is 20S proteasome. The data set is described as follows: 20S proteasome from BALB.SV cells in assay buffer. The note with it: 37C, up to 24 h.

Entries after “also recorded” stand apart in the source; their conditions may differ.

MDIGAYPHFMPTNLAGDPY: the fragment found entry is listed as “YPHFMPTNL, major; also recorded: YPH- FMPTNL(ox)”.

Source of the values: article PMC2192259 (The Journal of Experimental Medicine, 1995).
